Test results reported in PubChem BioAssay (NCI).
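Compound exposure: 48 hours, 5 concentrations, 96-well plates. Here, GI50 denotes the concentration required for 50% inhibition of growth. The concentration for full growth arrest is given as TGI.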

How the values were obtained:
Experiment in all cases: DTP human tumour cell line panel, 48 h
786-0 renal = test system: 786-0 renal
A549 NSCLC = test system: A549 NSCLC
ACHN renal = test system: ACHN renal
BT-549 breast = test system: BT-549 breast
CAKI-1 renal = test system: CAKI-1 renal
CCRF-CEM leukemia = test system: CCRF-CEM leukemia
COLO 205 colon = test system: COLO 205 colon
DU-145 prostate = test system: DU-145 prostate
EKVX NSCLC = test system: EKVX NSCLC
HCC-2998 colon = test system: HCC-2998 colon
HCT-116 colon = test system: HCT-116 colon
HCT-15 colon = test system: HCT-15 colon
HOP-62 NSCLC = test system: HOP-62 NSCLC
HOP-92 NSCLC = test system: HOP-92 NSCLC
HS 578T breast = test system: HS 578T breast
HT29 colon = test system: HT29 colon
IGROV1 ovarian = test system: IGROV1 ovarian
KM12 colon = test system: KM12 colon
LOX IMVI melanoma = test system: LOX IMVI melanoma
M14 melanoma = test system: M14 melanoma
MCF7 breast = test system: MCF7 breast
MDA-MB-231 breast = test system: MDA-MB-231 breast
MDA-MB-435 = test system: MDA-MB-435
MOLT-4 leukemia = test system: MOLT-4 leukemia
NCI-H23 lung = test system: NCI-H23 lung
NCI-H460 lung = test system: NCI-H460 lung
NCI-H522 lung = test system: NCI-H522 lung
NCI/ADR-RES ovarian = test system: NCI/ADR-RES ovarian
OVCAR-3 ovarian = test system: OVCAR-3 ovarian
OVCAR-4 ovarian = test system: OVCAR-4 ovarian
OVCAR-5 ovarian = test system: OVCAR-5 ovarian
OVCAR-8 ovarian = test system: OVCAR-8 ovarian
PC-3 prostate = test system: PC-3 prostate
RPMI-8226 leukemia = test system: RPMI-8226 leukemia
RXF 393 renal = test system: RXF 393 renal
SF-268 CNS = test system: SF-268 CNS
SF-295 CNS = test system: SF-295 CNS
SF-539 CNS = test system: SF-539 CNS
SK-MEL-2 melanoma = test system: SK-MEL-2 melanoma
SK-MEL-28 melanoma = test system: SK-MEL-28 melanoma
SK-MEL-5 melanoma = test system: SK-MEL-5 melanoma
SK-OV-3 ovarian = test system: SK-OV-3 ovarian
SN12C renal = test system: SN12C renal
SNB-19 CNS = test system: SNB-19 CNS
SNB-75 CNS = test system: SNB-75 CNS
SW-620 colon = test system: SW-620 colon
T-47D breast = test system: T-47D breast
TK-10 renal = test system: TK-10 renal
U251 CNS = test system: U251 CNS
UACC-257 melanoma = test system: UACC-257 melanoma
UACC-62 melanoma = test system: UACC-62 melanoma
UO-31 renal = test system: UO-31 renal

O=C(Cc1csc2nc(-c3ccc(Br)cc3)cn12)N/N=C/c1ccccc1
GI50 (786-0 renal): 27.7 µM | TGI (786-0 renal): > 100 µM | GI50 (A549 NSCLC): 13.5 µM | TGI (A549 NSCLC): 40.9 µM | GI50 (ACHN renal): 10.8 µM | TGI (ACHN renal): 25.6 µM | GI50 (BT-549 breast): 13 µM | TGI (BT-549 breast): 49.1 µM | GI50 (CAKI-1 renal): 30.3 µM | TGI (CAKI-1 renal): 82.2 µM | GI50 (CCRF-CEM leukemia): 17.3 µM | TGI (CCRF-CEM leukemia): > 100 µM | GI50 (COLO 205 colon): 66.1 µM | TGI (COLO 205 colon): > 100 µM | GI50 (DU-145 prostate): 14.6 µM | TGI (DU-145 prostate): 45.1 µM | GI50 (EKVX NSCLC): 6.95 µM | TGI (EKVX NSCLC): 52.5 µM | GI50 (HCC-2998 colon): 13.2 µM | TGI (HCC-2998 colon): 49.3 µM | GI50 (HCT-116 colon): 9.32 µM | TGI (HCT-116 colon): 21.2 µM | GI50 (HCT-15 colon): 16.3 µM | TGI (HCT-15 colon): > 100 µM | GI50 (HOP-62 NSCLC): 15.3 µM | TGI (HOP-62 NSCLC): 39.8 µM | GI50 (HOP-92 NSCLC): 12.2 µM | TGI (HOP-92 NSCLC): 37 µM | GI50 (HS 578T breast): 16.4 µM | TGI (HS 578T breast): 51.1 µM | GI50 (HT29 colon): 44 µM | TGI (HT29 colon): > 100 µM | GI50 (IGROV1 ovarian): 11.2 µM | TGI (IGROV1 ovarian): 32.7 µM | GI50 (KM12 colon): 26.1 µM | TGI (KM12 colon): > 100 µM | GI50 (LOX IMVI melanoma): 12.2 µM | TGI (LOX IMVI melanoma): 90.8 µM | GI50 (M14 melanoma): 20.9 µM | TGI (M14 melanoma): > 100 µM | GI50 (MCF7 breast): 75.9 µM | TGI (MCF7 breast): > 100 µM | GI50 (MDA-MB-231 breast): 13 µM | TGI (MDA-MB-231 breast): 58.2 µM | GI50 (MDA-MB-435): 12.1 µM | TGI (MDA-MB-435): 51.8 µM | GI50 (MOLT-4 leukemia): 6.69 µM | TGI (MOLT-4 leukemia): 37 µM | GI50 (NCI-H23 lung): 12.6 µM | TGI (NCI-H23 lung): 61.4 µM | GI50 (NCI-H460 lung): 53 µM | TGI (NCI-H460 lung): > 100 µM | GI50 (NCI-H522 lung): 14.2 µM | TGI (NCI-H522 lung): 60.8 µM | GI50 (NCI/ADR-RES ovarian): 13.6 µM | TGI (NCI/ADR-RES ovarian): 67.6 µM | GI50 (OVCAR-3 ovarian): 24.1 µM | TGI (OVCAR-3 ovarian): 46.3 µM | GI50 (OVCAR-4 ovarian): 47.1 µM | TGI (OVCAR-4 ovarian): > 100 µM | GI50 (OVCAR-5 ovarian): 30.7 µM | TGI (OVCAR-5 ovarian): > 100 µM | GI50 (OVCAR-8 ovarian): 2.36 µM | TGI (OVCAR-8 ovarian): 20.5 µM | GI50 (PC-3 prostate): 20.2 µM | TGI (PC-3 prostate): > 100 µM | GI50 (RPMI-8226 leukemia): 7.38 µM | TGI (RPMI-8226 leukemia): > 100 µM | GI50 (RXF 393 renal): 14.5 µM | TGI (RXF 393 renal): 38.8 µM | GI50 (SF-268 CNS): > 100 µM | TGI (SF-268 CNS): > 100 µM | GI50 (SF-295 CNS): 12.1 µM | TGI (SF-295 CNS): 37.4 µM | GI50 (SF-539 CNS): 16.2 µM | TGI (SF-539 CNS): 39.4 µM | GI50 (SK-MEL-2 melanoma): 33 µM | TGI (SK-MEL-2 melanoma): > 100 µM | GI50 (SK-MEL-28 melanoma): > 100 µM | TGI (SK-MEL-28 melanoma): > 100 µM | GI50 (SK-MEL-5 melanoma): 5.66 µM | TGI (SK-MEL-5 melanoma): 26.9 µM | GI50 (SK-OV-3 ovarian): 65.7 µM | TGI (SK-OV-3 ovarian): > 100 µM | GI50 (SN12C renal): 13.1 µM | TGI (SN12C renal): 39.9 µM | GI50 (SNB-19 CNS): 44.1 µM | TGI (SNB-19 CNS): > 100 µM | GI50 (SNB-75 CNS): 31.8 µM | TGI (SNB-75 CNS): 89.2 µM | GI50 (SW-620 colon): 18.8 µM | TGI (SW-620 colon): 62.8 µM | GI50 (T-47D breast): 36.9 µM | TGI (T-47D breast): > 100 µM | GI50 (TK-10 renal): 14.1 µM | TGI (TK-10 renal): 42.1 µM | GI50 (U251 CNS): 12.7 µM | TGI (U251 CNS): 32.1 µM | GI50 (UACC-257 melanoma): 6.21 µM | TGI (UACC-257 melanoma): 32 µM | GI50 (UACC-62 melanoma): 11.6 µM | TGI (UACC-62 melanoma): 28.2 µM | GI50 (UO-31 renal): 58.2 µM | TGI (UO-31 renal): > 100 µM
